Laboratory results as given in ChEMBL document CHEMBL2311316, “Synthesis and biological evaluation of ¹⁸F labeled fluoro-oligo-ethoxylated 4-benzylpiperazine derivatives for sigma-1 receptor imaging” (Bioorg Med Chem, 2013).

Assays:
[1] = Displacement of [3H]ditolyguanidine from sigma2 receptor in rat liver membranes; type: cell membranes, Membrane
Rattus norvegicus = species: Rattus norvegicus; assay: Selectivity index, ratio of Ki for sigma2 receptor in rat liver membranes to Ki for sigma1 receptor in rat brain membranes; type: cell membranes
[2] = target: Sigma non-opioid intracellular receptor 1 (Rattus norvegicus, UniProt Q9R0C9); assay: Displacement of (+)-[3H]pentazocine from sigma1 receptor in rat brain membranes; type: cell membranes
[3] = target: T1, Vesicular acetylcholine transporter (Homo sapiens, UniProt Q16572); assay: Binding affinity to VAChT (unknown origin)
T1 sequence (Q16572 whole entry): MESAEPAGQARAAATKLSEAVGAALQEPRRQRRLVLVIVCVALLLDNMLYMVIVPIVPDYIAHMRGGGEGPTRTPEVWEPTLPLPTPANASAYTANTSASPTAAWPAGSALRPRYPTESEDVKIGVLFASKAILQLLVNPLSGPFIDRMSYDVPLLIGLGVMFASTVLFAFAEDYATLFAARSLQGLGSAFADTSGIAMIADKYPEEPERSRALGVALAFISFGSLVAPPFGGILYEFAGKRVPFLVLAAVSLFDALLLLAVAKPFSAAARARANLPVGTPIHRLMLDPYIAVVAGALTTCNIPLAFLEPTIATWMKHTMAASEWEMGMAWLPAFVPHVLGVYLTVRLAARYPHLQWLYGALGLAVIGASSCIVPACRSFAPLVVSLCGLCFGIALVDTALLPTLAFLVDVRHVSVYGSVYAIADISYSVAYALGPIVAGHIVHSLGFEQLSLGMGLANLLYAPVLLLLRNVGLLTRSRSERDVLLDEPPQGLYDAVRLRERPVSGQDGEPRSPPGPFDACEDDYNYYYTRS

Brain = assay: Specific drug uptake in ICR mouse brain at 4 uCi, iv measured 60 mins post dose; type: ADME, organism-based; details: in vivo, 1 h

Chain of Sigma non-opioid intracellular receptor 1 (Q9R0C9 whole entry): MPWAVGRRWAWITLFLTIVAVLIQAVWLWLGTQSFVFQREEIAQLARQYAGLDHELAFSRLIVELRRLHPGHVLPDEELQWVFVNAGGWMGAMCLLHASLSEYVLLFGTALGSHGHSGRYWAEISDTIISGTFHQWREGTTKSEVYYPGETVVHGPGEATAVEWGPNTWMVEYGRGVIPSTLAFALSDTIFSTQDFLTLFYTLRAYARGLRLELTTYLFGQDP

| Ki [1] [nM] | Ratio Ki (Rattus norvegicus) | Ki [2] [nM] | SMILES | Ki [3] [nM] | Drug uptake (Brain) [%] |
| --- | --- | --- | --- | --- | --- |
| 291 | 157 | 1.85 | FCCOc1ccc(CN2CCN(Cc3ccc4c(c3)OCO4)CC2)cc1 |  |  |
| 20.7 |  |  | O=C(CCCN1CCC(O)(c2ccc(Cl)cc2)CC1)c1ccc(F)cc1 [HALOPERIDOL] |  |  |
|  |  |  | [17F]CCC1OC2(CCN(Cc3ccccc3)CC2)c2ccccc21 (configuration not stated) [[18F]FLUSPIDINE] | 211 | 62 |
| 1420 | 2.81 | 505 | FCCOCCOCCOc1ccc(CN2CCN(Cc3ccc4c(c3)OCO4)CC2)cc1 |  |  |
| 666 | 16.4 | 40.7 | FCCOCCOc1ccc(CN2CCN(Cc3ccc4c(c3)OCO4)CC2)cc1 |  |  |
